# Experimental data: US9556130B2, “4-oxo-3,4-dihydro-1,2,3-benzotriazine modulators of GPR139” (Takeda Pharmaceutical Company Limited, priority 2014, dated 2017)
# Columns and labels:
# human GPR139 receptor [1] = biological target: T1, human GPR139 receptor (Homo sapiens (Human), UniProt Q6DWJ6); test: Activation of Calcium Signaling of GPR139 In Vitro Assay; assay type: cell-based; conditions: stably transfected CHO-TRex cells, Calcium 5 dye, FLIPR Tetra;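 further: receptor expression induced with doxycycline, calcium fluorescence read continuously for one minute after compound addition, EC50 taken from a four-parameter logistic fit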
# human GPR139 receptor [2] = biological target: T1, human GPR139 receptor; test: GPR139 Competition Binding; conditions: stably transfected CHO-TRex membranes, 1 nM 3H radioligand; read-out: GPR139 Inhibition (Ki (nM));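 further: receptor expression induced with doxycycline before membrane preparation, bound radioactivity counted by scintillation, Ki fitted with a four-parameter logistic model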
# T1 sequence (Q6DWJ6 whole entry): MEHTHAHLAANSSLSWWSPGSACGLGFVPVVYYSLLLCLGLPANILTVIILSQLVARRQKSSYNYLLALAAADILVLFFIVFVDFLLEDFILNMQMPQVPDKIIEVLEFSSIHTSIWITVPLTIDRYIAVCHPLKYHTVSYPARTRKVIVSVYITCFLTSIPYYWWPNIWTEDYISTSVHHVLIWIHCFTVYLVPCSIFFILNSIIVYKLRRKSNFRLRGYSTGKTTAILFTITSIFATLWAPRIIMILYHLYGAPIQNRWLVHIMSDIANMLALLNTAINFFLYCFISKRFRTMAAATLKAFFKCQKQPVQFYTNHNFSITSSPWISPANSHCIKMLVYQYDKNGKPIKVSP
SMILES,EC50 (human GPR139 receptor [1]) [nM],Ki (human GPR139 receptor [2]) [nM]
"Cc1ccc([C@H](C)NC(=O)Cn2nnc3c(Cl)cccc3c2=O)cc1 [Example 22, (S)-2-(8-chloro-4-oxobenzo[d][1,2,3]triazin-3(4H)-yl)-N-(1-p-tolylethyl)acetamide]",7,110
"COc1ccc([C@H](C)NC(=O)Cn2nnc3c(Cl)cccc3c2=O)cc1 [Example 23, (S)-2-(8-chloro-4-oxobenzo[d][1,2,3]triazin-3(4H)-yl)-N-(1-(4-methoxyphenyl)ethyl)acetamide]",13,842
"COc1cc(C)ccc1[C@H](C)NC(=O)[C@H](C)n1nnc2ccccc2c1=O [Example 50, (S)—N—((S)-1-(2-methoxy-4-methylphenyl)ethyl)-2-(4-oxobenzo[d][1,2,3]triazin-3(4H)-yl)propanamide]",52,–
"COc1ccc([C@H](C)NC(=O)Cn2nnc3cccc(F)c3c2=O)cc1 [Example 33, (S)-2-(5-fluoro-4-oxobenzo[d][1,2,3]triazin-3(4H)-yl)-N-(1-(4-methoxyphenyl)ethyl)acetamide]",41,4850
"COc1ccc([C@H](C)NC(=O)Cn2nnc3c(C)cccc3c2=O)cc1 [Example 25, (S)—N-(1-(4-methoxyphenyl)ethyl)-2-(8-methyl-4-oxobenzo[d][1,2,3]triazin-3 (4H)-yl)acetamide]",8,526
"Cc1ccc([C@H](C)NC(=O)Cn2nnc3cc(Cl)ccc3c2=O)cc1 [Example 21, (S)-2-(7-chloro-4-oxobenzo[d][1,2,3]triazin-3(4H)-yl)-N-(1-p-tolylethyl)acetamide]",17,173
"Cc1ccc([C@H](C)NC(=O)Cn2nnc3cc(C)ccc3c2=O)cc1 [Example 34, (S)-2-(7-methyl-4-oxobenzo[d][1,2,3]triazin-3(4H)-yl)-N-(1-p-tolylethyl)acetamide]",7,347
"Cc1ccc([C@H](C)NC(=O)Cn2nnc3c(Cl)cc(Cl)cc3c2=O)cc1 [Example 26, (S)-2-(6,8-dichloro-4-oxobenzo[d][1,2,3]triazin-3(4H)-yl)-N-(1-p-tolylethyl)acetamide]",16,26
"COc1ccc([C@H](C)NC(=O)Cn2nnc3c(C)cc(C)cc3c2=O)cc1 [Example 42, (S)-2-(6,8-dimethyl-4-oxobenzo[d][1,2,3]triazin-3(4H)-yl)-N-(1-(4-methoxyphenyl)ethyl)acetamide]",37,179
"Cc1ccc([C@H](C)NC(=O)Cn2nnc3c(F)cccc3c2=O)cc1 [Example 16, (S)-2-(8-fluoro-4-oxobenzo[d][1,2,3]triazin-3(4H)-yl)-N-(1-p-tolylethyl)acetamide]",9,708
"COc1ccc([C@H](C)NC(=O)Cn2nnc3cc(C)ccc3c2=O)cc1 [Example 35, (S)—N-(1-(4-methoxyphenyl)ethyl)-2-(7-methyl-4-oxobenzo[d][1,2,3]triazin-3(4H)-yl)acetamide]",42,1520
"COc1ccc([C@H](C)NC(=O)Cn2nnc3c(Cl)cc(Cl)cc3c2=O)cc1 [Example 27, (S)-2-(6,8-dichloro-4-oxobenzo[d][1,2,3]triazin-3(4H)-yl)-N-(1-(4-methoxyphenyl)ethyl)acetamide]",7,190
"COc1ccc([C@H](C)NC(=O)Cn2nnc3cccc(C)c3c2=O)cc1 [Example 40, (S)—N-(1-(4-methoxyphenyl)ethyl)-2-(5-methyl-4-oxobenzo[d][1,2,3]triazin-3(4H)-yl)acetamide]",9,533
"COc1ccc([C@H](C)NC(=O)Cn2nnc3ccc(C)cc3c2=O)cc1 [Example 29, (S)—N-(1-(4-methoxyphenyl)ethyl)-2-(6-methyl-4-oxobenzo[d][1,2,3]triazin-3(4H)-yl)acetamide]",19,–
"COc1ccc([C@H](C)NC(=O)Cn2nnc3c(OC)cccc3c2=O)cc1 [Example 31, (S)-2-(8-methoxy-4-oxobenzo[d][1,2,3]triazin-3 (4H)-yl)-N-(1-(4-methoxyphenyl)ethyl)acetamide]",39,–
"Cc1ccc([C@H](C)NC(=O)Cn2nnc3cccc(F)c3c2=O)cc1 [Example 32, (S)-2-(5-fluoro-4-oxobenzo[d][1,2,3]triazin-3(4H)-yl)-N-(1-p-tolylethyl)acetamide]",16,459
"C[C@H](NC(=O)Cn1nnc2ccccc2c1=O)c1ccc(F)cc1Br [Example 48, (S)—N-(1-(2-bromo-4-fluorophenyl)ethyl)-2-(4-oxobenzo[d][1,2,3]triazin-3(4H)-yl)acetamide]",1510,–
"Cc1ccc([C@H](C)NC(=O)Cn2nnc3c(C)cc(C)cc3c2=O)cc1 [Example 41, (S)-2-(6,8-dimethyl-4-oxobenzo[d][1,2,3]triazin-3(4H)-yl)-N-(1-p-tolylethyl)acetamide]",7,10
"C[C@H](NC(=O)Cn1nnc2ccccc2c1=O)c1ccc(F)cc1Cl [Example 47, (S)—N-(1-(2-chloro-4-fluorophenyl)ethyl)-2-(4-oxobenzo[d][1,2,3]triazin-3(4H)-yl)acetamide]",14,–
"COc1ccc([C@H](C)NC(=O)Cn2nnc3cccc(OC)c3c2=O)cc1 [Example 38, (S)-2-(5-methoxy-4-oxobenzo[d][1,2,3]triazin-3 (4H)-yl)-N-(1-(4-methoxyphenyl)ethyl)acetamide]",26,619
"Cc1ccc([C@H](C)NC(=O)Cn2nnc3cccc(C)c3c2=O)cc1 [Example 39, (S)-2-(5-methyl-4-oxobenzo[d][1,2,3]triazin-3 (4H)-yl)-N-(1-p-tolylethyl)acetamide]",6,92
"Cc1ccc([C@H](C)NC(=O)Cn2nnc3c(C)cccc3c2=O)cc1 [Example 24, (S)-2-(8-methyl-4-oxobenzo[d][1,2,3]triazin-3(4H)-yl)-N-(1-p-tolylethyl)acetamide]",9,72

# Now from value to compound:
EC50 (human GPR139 receptor [1]) [nM],Ki (human GPR139 receptor [2]) [nM],SMILES
18,115,"COc1ccc2nnn(CC(=O)N[C@@H](C)c3ccc(C(F)(F)F)cc3)c(=O)c2c1 [Example 60, (S)-2-(6-methoxy-4-oxobenzo[d][1,2,3]triazin-3(4H)-yl)-N-(1-(4-(trifluoromethyl)phenyl)ethyl)acetamide]"
49,–,"C[C@H](NC(=O)Cn1nnc2ccc(F)cc2c1=O)c1ccc(OC(F)(F)F)cc1F [Example 71, (S)—N-(1-(2-fluoro-4-(trifluoromethoxy)phenyl)ethyl)-2-(6-fluoro-4-oxobenzo[d][1,2,3]triazin-3(4H)-yl)acetamide]"
24,39,"Cc1ccc([C@H](C)NC(=O)Cn2nnc3ccc(F)cc3c2=O)c(C)c1 [Example 52, (S)—N-(1-(2,4-dimethylphenyl)ethyl)-2-(6-fluoro-4-oxobenzo[d][1,2,3]triazin-3(4H)-yl)acetamide]"
37,218,"COc1ccc2c(=O)n(CC(=O)N[C@@H](C)c3ccc(OC(F)(F)F)cc3)nnc2c1 [Example 56, (S)-2-(7-methoxy-4-oxobenzo[d][1,2,3]triazin-3(4H)-yl)-N-(1-(4-(trifluoromethoxy)phenyl)ethyl)acetamide]"
38,42,"C[C@H](NC(=O)Cn1nnc2ccc(F)cc2c1=O)c1ccc(OC(F)(F)F)cc1 [Example 55, (S)-2-(6-fluoro-4-oxobenzo[d][1,2,3]triazin-3(4H)-yl)-N-(1-(4-(trifluoromethoxy)phenyl)ethyl)acetamide]"
31,214,"CC[C@H](NC(=O)Cn1nnc2ccccc2c1=O)c1ccc(C(F)(F)F)cc1 [Example 87, (S)-2-(4-oxobenzo[d][1,2,3]triazin-3 (4H)-yl)-N-(1-(4-(trifluoromethyl)phenyl)propyl)acetamide]"
10,282,"C[C@H](NC(=O)Cn1nnc2ccc(F)cc2c1=O)c1ccc(OC(F)F)cc1 [Example 68, (S)—N-(1-(4-(difluoromethoxy)phenyl)ethyl)-2-(6-fluoro-4-oxobenzo[d][1,2,3]triazin-3(4H)-yl)acetamide]"
43,128,"COc1ccc2nnn(CC(=O)N[C@@H](C)c3ccc(OC(F)(F)F)cc3)c(=O)c2c1 [Example 57, (S)-2-(6-methoxy-4-oxobenzo[d][1,2,3]triazin-3(4H)-yl)-N-(1-(4-(trifluoromethoxy)phenyl)ethyl)acetamide]"
25,240,"COc1cccc2c(=O)n(CC(=O)N[C@@H](C)c3ccc(OC(F)(F)F)cc3)nnc12 [Example 62, (S)-2-(8-methoxy-4-oxobenzo[d][1,2,3]triazin-3(4H)-yl)-N-(1-(4-(trifluoromethoxy)phenyl)ethyl)acetamide]"
50,352,"COc1cccc2c(=O)n(CC(=O)N[C@@H](C)c3ccc(C(F)(F)F)cc3)nnc12 [Example 63, (S)-2-(8-methoxy-4-oxobenzo[d][1,2,3]triazin-3 (4H)-yl)-N-(1-(4-(trifluoromethyl)phenyl)ethyl)acetamide]"
80,–,"COc1ccc(CCN(C)C(=O)Cn2nnc3ccccc3c2=O)cc1 [Example 78, N-(4-methoxyphenethyl)-N-methyl-2-(4-oxobenzo[d][1,2,3]triazin-3(4H)-yl)acetamide]"
13,106,"C[C@H](NC(=O)Cn1nnc2ccc(F)cc2c1=O)c1ccc(C(F)(F)F)cc1 [Example 64, (S)-2-(6-fluoro-4-oxobenzo[d][1,2,3]triazin-3(4H)-yl)-N-(1-(4-(trifluoromethyl)phenyl)ethyl)acetamide]"
16,–,"COc1cc(C)ccc1[C@H](C)NC(=O)[C@@H](C)n1nnc2ccccc2c1=O [Example 51, (R)—N—((S)-1-(2-methoxy-4-methylphenyl)ethyl)-2-(4-oxobenzo[d][1,2,3]triazin-3(4H)-yl)propanamide]"
15,26,"COc1cccc2nnn(CC(=O)N[C@@H](C)c3ccc(C(F)(F)F)cc3)c(=O)c12 [Example 61, (S)-2-(5-methoxy-4-oxobenzo[d][1,2,3]triazin-3 (4H)-yl)-N-(1-(4-(trifluoromethyl)phenyl)ethyl)acetamide]"
